For this series the following is noted: Liquid, Ebulliometric method (Recirculating still).

± gives the expanded uncertainty stated by the source.

As to `CCCOCCO` [2-propoxyethanol], the “vapor or sublimation pressure” value is recorded as 60 ± 1.4 kPa (406.13 K); 60 ± 1.4 kPa (406.15 K); 80 ± 2 kPa (415.28 K); 80 ± 2 kPa (415.3 K); 100 ± 2.5 kPa (422.73 K); 100 ± 2.5 kPa (422.75 K).

In the case of `CCC(C)O` (configuration not stated) [butan-2-ol], the “vapor or sublimation pressure” value (359.26 K) is listed as 60 ± 1.4 kPa, the “vapor or sublimation pressure” value (366.45 K) came to 80 ± 1.8 kPa and the “vapor or sublimation pressure” value (372.21 K) is listed as 100 ± 2.4 kPa.

Turning to `CC(C)O` [propan-2-ol], the “vapor or sublimation pressure” value (342.87 K) is on record as 60 ± 1.4 kPa, the “vapor or sublimation pressure” value (349.6 K) is 80 ± 1.8 kPa and the “vapor or sublimation pressure” value (355.06 K) came out at 100 ± 2.4 kPa.
